Results taken from ChEMBL document CHEMBL5523728, “Fragment-Based Discovery of a Series of Allosteric-Binding Site Modulators of β-Glucocerebrosidase” (J Med Chem, 2024).
Activity calls are given as the source filed them. The calls are words filed in the database; no cut-off is given here.

molecular target: T1, Lysosomal acid glucosylceramidase (Homo sapiens) (UniProt P04062); test: not given; details: Fibroblast, dose 0.5 mM, time 27.0 hrs
T1 sequence (whole entry): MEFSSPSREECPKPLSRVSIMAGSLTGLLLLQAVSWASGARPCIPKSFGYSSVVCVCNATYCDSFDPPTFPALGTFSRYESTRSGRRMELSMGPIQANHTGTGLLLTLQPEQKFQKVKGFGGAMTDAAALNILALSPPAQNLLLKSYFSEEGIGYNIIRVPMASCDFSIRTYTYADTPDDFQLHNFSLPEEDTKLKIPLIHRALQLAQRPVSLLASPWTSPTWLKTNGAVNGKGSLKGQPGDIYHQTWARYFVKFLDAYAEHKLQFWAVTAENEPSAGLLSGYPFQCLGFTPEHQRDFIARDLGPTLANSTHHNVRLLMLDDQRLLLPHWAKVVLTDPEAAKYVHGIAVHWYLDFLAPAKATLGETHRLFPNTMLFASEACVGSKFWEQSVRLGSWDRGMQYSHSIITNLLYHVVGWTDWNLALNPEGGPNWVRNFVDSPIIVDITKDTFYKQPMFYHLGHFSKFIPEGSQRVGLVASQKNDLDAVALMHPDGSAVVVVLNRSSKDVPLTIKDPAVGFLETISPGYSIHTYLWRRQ

SMILES	inhibition
O[C@H]1[C@H](O)[C@@H](O)[C@@H]2O[C@@H]2[C@@H]1O	Active

molecular target: T2, Lysosomal acid glucosylceramidase (Homo sapiens, UniProt P04062); test: biochemical; details: not given
T2 sequence (P04062 whole entry): T1 sequence (whole entry)

SMILES	Kd [µM]
CN(C[C@H](N)c1cccc(Cl)c1)S(=O)(=O)c1cc(F)cc(F)c1	0.25
N[C@H](CNS(=O)(=O)c1cccc(F)c1)c1ccccc1	3
CCCOc1cc(F)cc(S(=O)(=O)N(C)C[C@@H](N)c2cccc(N(C)C)c2)c1	0.018
O=S(=O)(NCC1CC1)c1ccccc1	410
CN(CC(F)F)c1cccc([C@@H](N)CN(C)S(=O)(=O)c2cc(F)cc(F)c2)c1	0.22
N[C@H](CNS(=O)(=O)c1ccccc1)c1ccccc1	7
c1ccc(CC2CCNCC2)cc1	19
CN(C[C@@H](N)c1cccc(Br)c1)S(=O)(=O)c1cc(F)cc(F)c1	0.18
C=C(C)c1cccc([C@@H](N)CN(C)S(=O)(=O)c2cc(F)cc(F)c2)c1	0.05
N[C@H](CNS(=O)(=O)c1cc(F)cc(F)c1)c1ccccc1	1
Cc1ccc(S(=O)(=O)NCC(C)N)cc1 (racemic)	100
NCC(O)CNS(=O)(=O)c1ccccc1F (racemic)	180

molecular target: T2, Lysosomal acid glucosylceramidase; test: Positive allosteric modulation of GCase in human Fibroblast cells using GBA1-FQ2 as substrate preincubated for 24 hrs followed by substrate addition and measured after 3 hrs by Hoechst 33342 staining based imaging analysis; format: cell-based; details: not given

SMILES	EC50 [µM]
CCCOc1cc(F)cc(S(=O)(=O)N(C)C[C@@H](N)c2cccc(N(C)C)c2)c1	8.9
C=C(C)c1cccc([C@@H](N)CN(C)S(=O)(=O)c2cc(F)cc(F)c2)c1	9
